# According to US12662707B2, “MYC amplification drives resistance to pan-RAS inhibitors in pancreatic cancer” (The Trustees of Columbia University in the City of New York, priority 2024, dated 2026):
# Key:
# [1] = test system: KPC tumor-derived cell lines; experiment: Viability of cell lines from RMC-7977 resistant or naive KPC tumors; format: cell-based, murine
# Text: Patient-derived xenograft (PDX) human PDAC cell lines were provided by Dr. Anirban Maitra (MD Anderson Cancer Center): Pa01C, Pa02C, Pa14C, and Pa16C. hF39 and hF43 cell lines were provided by Dr. David Tuveson (Cold Spring Harbor Laboratory). The UM147 PDX cell line was obtained from University of Michigan (PMID: 17283135). PaCaDD-137 and PaCaDD-165 were obtained from the German Collection of Microorganisms and Cell Cultures GmbH (DSMZ, world wide web dsmz.de/). All remaining cell lines were obtained from the American Type Culture Collection (ATCC). […]
# PDAC murine cell lines harboring KrasG12D or KrasG12C mutations were seeded at 2×10^3 in a 96-well plate. […] Cell viability was evaluated 72 hours later by measuring adenosine triphosphate (ATP) levels using the CellTiter-Glo® Luminescent Cell Viability Assay (Promega, G7572) according to the manufacturer's instructions. For experiments comparing naive and resistant cell lines, live cells were fluorescently labelled using Calcein AM (20-minute incubation at 500 nM, Thermo Fisher) and counted using the SpectraMax i3X multimode detection platform (Molecular Devices). […] Growth percentage was calculated by normalizing drug-treated values to DMSO control, which was set to 100%. […]
# [2] = test system: normal tissues (colon, skin, liver, intestines, lungs, kidneys); experiment: IHC and histopathology of normal tissues of KPC mice; format: in vivo, mouse
# Description: Tumor formation in KPC mice was monitored by bi-weekly palpation. […] Treatments were performed every other day via oral gavage for 1 week. […] Following two consecutive ultrasounds, RMC-7977-treated animals were sacrificed either 4 (n=7) or 24 hours (n=4) after last dose and Vehicle-treated animals were sacrificed between 4-24 hours post last dose. Tissue was harvested and preserved as previously described (See Xenograft studies section). Additional group of KPC mice was also treated with a single dose of RMC-7977 (n=10) or Vehicle (n=3) and tissues were harvested at 4 or 24 hours post dose as previously described. All tissues were fixed for up to 24 hours using 10% neutral buffered formalin and then moved to 70% ethanol for long term storage. All stainings were performed on 4-μm tissue sections. Sections were deparaffinized using a Leica XL ST5010 autostainer, after which slides were subjected to heat-activated epitope retrieval. […] Slides were further blocked in serum for 1 hour, and primary antibodies were added for overnight incubation at 4° C. […] Following incubation, ImmPACT DAB peroxidase (Vector Laboratories, SK-4100) was used to develop the stain and hematoxylin was used as nuclear counterstain. Stained slides were imaged at 40× magnification. Quantitative analyses of IHC images were performed using ImageJ.
# [3] = test system: autochthonous KPC pancreatic tumors; settings: 50 mg/kg q.o.d.
# Description: For survival study, KPC mice with 4-7 mm diameter tumors (as measured by ultrasound) were enrolled and treated every other day with Vehicle (n=9) or RMC-7977 (50 mg/kg; n=13). Animal health status and weight were checked daily and ultrasounds were performed every third day to monitor tumor growth. The survival end point was determined by overall health criteria scoring, where end point is determined by a score of 5 or greater based on the following criteria: • Moribund—immediate euthanasia • Abdominal distention due to hemorrhagic ascites—5 pts • Mild difficulty beathing—5 pts • Hypothermia—5 pts • Abdominal distention due to chylous ascites—3 pts • Loss of over 20% enrollment body weight—3 pts • Failure of grasp test—3 pts Jaundice or pallor—3 pts • Weak grasp test—2 pts • Failure to interact with other mice—1 pt • Hunched—1 pt • Pilorection/failure to groom—1 pt
# Additional notes were made to better characterize the cause of death upon necropsy, including the presence of macro liver and/or lung metastases, jaundice, and tumor-mediated GI obstructions. Survival is denoted as Kaplan-Meier survival curves compared with a log-rank, Mantel-Cox test. Mice that reached endpoint criteria were sacrificed either at 4 or 24 hours after last dose in a manner consistent with IACUC standards and our own criteria scoring. Tissue was collected at time of necropsy for further analysis.
# [4] = Pharmacokinetics in Capan-1 xenograft model (tumor and blood); format: in vivo; settings: BALB/c (immune-deficient), mouse, tumor vs whole blood, oral; Capan-1 xenograft tumors; read-out: overall exposure (AUC0-48) in tumors compared to blood
# Description: Studies were terminated early if tumor burden reached humane endpoint. Body weights were collected twice a week during the study. Means±s.e.m were plotted in the waterfall plots. For the single-dose pharmacokinetic/pharmacodynamic (PK/PD) study, mice were randomized and assigned into groups (n=3-6/dose/timepoint). […] Sakura, 4583) solution or snap-frozen in LN2 for further analysis. Whole blood was transferred into K2EDTA Microtainer tubes (BD, 365974), incubated for 5 minutes and snap-frozen in LN2. Whole blood, tumor, colon and skin tissue concentrations of RMC-7977 were determined using liquid chromatography-tandem mass spectrometry (LC-MS/MS) methods. […] After thorough mixing and centrifugation, the supernatant was directly analyzed on a Sciex 6500+ triple quadrupole mass spectrometer equipped with an ACQUITY or Shimadzu UPLC system. An ACQUITY UPLC BEH C18 or C4 […] (2.1×50 mm) column was used with gradient elution for compound separation. RMC-7977 and IS (verapamil or terfenadine) were detected by positive electrospray ionization using multiple reaction monitoring (RMC-7977: m/z 865.4/706.4 or m/z 865.3/833.5; verapamil: m/z 455.2/164.9; terfenadine: m/z 472.3/436.4). […] BA analysis on blood and tissue samples from xenograft models was run at Wuxi AppTec. BA analysis on blood and tissue samples from allograft models and GEMM was run at Revolution Medicines.
smiles,measurement,setting,value
CCn1c(-c2cc(N3CCN(C4CC4)CC3)cnc2[C@H](C)OC)c2c3cc(ccc31)-c1csc(n1)C[C@H](NC(=O)[C@H]1[C@@H]3COC[C@@H]31)C(=O)N1CCC[C@H](N1)C(=O)OCC(C)(C)C2 [RMC-7977],sensitivity of treatment-naive MycGain line K2293,[1]; K2293,lower sensitivity
same,sensitivity of lines from resistant tumors vs control KPC cell line (K8484),"[1]; all six lines from resistant tumors, 3-5 days",less sensitive
same,effects on apoptosis (CC3) and proliferation (Cyclin A2) in colon and skin,"[2]; SD, 1 Wk and EP KPC mice, all timepoints",absent or negligible
same,treatment-associated histopathological feature,"[2]; proximal intestines of half the treated animals, no diarrhea or weight loss",modest increase in apoptosis
same,body weights compared with control KPC mice,[3],similar
same,tumor response by 3D-ultrasound,[3],tumor stabilizations or regressions
same,increase in median survival compared to controls,[3]; KPC mice,3.5 fold
same,Kp,[4],~3
